pIC50: −log10 of the molar value. Read-outs that look alike come from different tables or passages of the source.
What was measured:
[1] = tested on: N2a cells; assay: MTT cell viability assay, N2a; type: cell-based, mouse; conditions: Mus musculus
Method: (§1) N2a, SH-SY5Y, SK-N-BE (2), 10A, HUVEC, HL7702 cells were plated in 96-well plates at 8,000 cells/well, respectively, in complete media in triplicate wells for each dose and cultured for 18 h. The neuroblastoma cell lines, N2a, SH-SY5Y, and SK-N-BE (2), and non-cancer cell lines, 10A, HUVEC, and HL7702, were treated with simvastatin and fluvastatin in a range of doses from 0 to 20 μM and with AA from 0 to 30 μM; N2a, SH-SY5Y SK-N-BE (2), were treated with rosuvastatin in a range of doses from 0 to 100 μM for 72 h. Statins dissolved in DMSO and AA dissolved in ethanol. After 72 h treatment, the medium was added 0.5 mg/ml MTT reagent and incubated at 37°C for 4 h. Subsequently, the supernatant was aspirated, and cells were lysed in 150 µl DMSO, then shaken 10 min at 37°C. The optical density (OD) was measured at 570 and 630 nm using a plate reader.

[2] = tested on: SH-SY5Y cells; assay: MTT cell viability assay, SH-SY5Y; type: cell-based; conditions: Homo sapiens, NB cell line, 72 h
Method: as §1

[3] = tested on: N2a cells; assay: Wound healing assay, N2a; type: cell-based, mouse; conditions: 1.5 μM simvastatin, 48 h
Method: N2a, SH-SY5Y, and SK-N-BE (2) cells were cultured in six-well plates (5 × 10^5cells/well) and incubated till they reached 90–100% confluence. The cells were then maintained in phenol red-free DMEM/DMEM-F12 with 2.5%FBS, in order to minimize the cell proliferation. A sterile 20 µl tip was used to create scratch wounds of the same width. The plates were then washed twice with phosphate-buffered saline (PBS) to remove the detached cells. Photos were taken at 0, 24, and 48 h, and the area covered by the cells enumerated the closure of the wounds. Each experiment was performed in triplicate.

[4] = tested on: U87MG; design: method as in Supplement [1]; key: Positive: Simvastatin alone inhibited the progression of cancer; Negative: Simvastatin alone could not inhibit the progression of cancer; conditions: Glioma, 2.5 mg/kg/day, s.c.; ref Supplement [1]; cited from earlier work
[5] = tested on: HLMC cells from the primary patients; design: method as in Supplement [4]; key: Positive: Simvastatin alone inhibited the progression of cancer; Negative: Simvastatin alone could not inhibit the progression of cancer; conditions: Lung Carcinoma, 50.0 mg/kg/day, oral; ref Supplement [4]; cited from earlier work
[6] = tested on: A549 cells; design: method as in Supplement [5]; key: Positive: Simvastatin alone inhibited the progression of cancer; Negative: Simvastatin alone could not inhibit the progression of cancer; conditions: Lung Adenocarcinoma, 10.0 mg/kg/day, i.v; ref Supplement [5]; cited from earlier work
[7] = tested on: SNU-5 cells; design: method as in Supplement [6]; key: Positive: Simvastatin alone inhibited the progression of cancer; Negative: Simvastatin alone could not inhibit the progression of cancer; conditions: Gastric Cancer, 2.1 mg/kg/day, i.p.; ref Supplement [6]; cited from earlier work
[8] = tested on: Panc-1 cells from the primary tumors; design: method as in Supplement [9]; key: Positive: Simvastatin alone inhibited the progression of cancer; Negative: Simvastatin alone could not inhibit the progression of cancer; conditions: Pancreatic Ductal Adenocarcinoma, 20.0 mg/kg/day, i.p.; ref Supplement [9]; cited from earlier work
[9] = tested on: SW 480 cells; design: method as in Supplement [10]; key: Positive: Simvastatin alone inhibited the progression of cancer; Negative: Simvastatin alone could not inhibit the progression of cancer; conditions: Colorectal Cancer, 6.0 mg/kg/day, oral; ref Supplement [10]; cited from earlier work
[10] = tested on: HCT116 p53 +/+ or p53 -/- cells; design: method as in Supplement [12]; key: Positive: Simvastatin alone inhibited the progression of cancer; Negative: Simvastatin alone could not inhibit the progression of cancer; conditions: Colorectal Cancer, 20.0 mg/kg/day, i.p.; ref Supplement [12]; cited from earlier work
[11] = tested on: Caki-1-staR cells; design: method as in Supplement [13]; key: Positive: Simvastatin alone inhibited the progression of cancer; Negative: Simvastatin alone could not inhibit the progression of cancer; conditions: Renal Cancer, 6.7 mg/kg/day, i.p.; ref Supplement [13]; cited from earlier work
[12] = tested on: A498 cells; design: method as in Supplement [14]; key: Positive: Simvastatin alone inhibited the progression of cancer; Negative: Simvastatin alone could not inhibit the progression of cancer; conditions: Renal Cancer, 5.0 mg/kg/day, oral; ref Supplement [14]; cited from earlier work
[13] = tested on: 22RV1 cells; design: key to Results (simvastatin alone): Positive: Simvastatin alone inhibited the progression of cancer; Negative: Simvastatin alone could not inhibit the progression of cancer; conditions: Prostate Cancer, 25.0 mg/kg/day, i.p.; ref Supplement [15]; cited from earlier work
[14] = tested on: LAPC-4 cells; design: method as in Supplement [16]; key: Positive: Simvastatin alone inhibited the progression of cancer; Negative: Simvastatin alone could not inhibit the progression of cancer; conditions: Prostate Cancer, 11.0 mg/kg/day, s.c.; ref Supplement [16]; cited from earlier work
[15] = tested on: MDA-MB-231 cells; design: key: Positive: Simvastatin alone inhibited the progression of cancer; Negative: Simvastatin alone could not inhibit the progression of cancer; conditions: Breast Cancer, cited from earlier work
[16] = tested on: KHOS or NP cells; design: method as in Supplement [24]; key: Positive: Simvastatin alone inhibited the progression of cancer; Negative: Simvastatin alone could not inhibit the progression of cancer; conditions: Osteosarcoma, 10.0 mg/kg, route unknown; ref Supplement [24]; cited from earlier work

CCC(C)(C)C(=O)O[C@H]1C[C@@H](C)C=C2C=C[C@H](C)[C@H](CC[C@@H]3C[C@@H](O)CC(=O)O3)[C@H]21 [Simvastatin]
5.22: pIC50 ([1]; N2a, NB cell line, MTT, 72 h)
significantly higher: migration vs control group [3]
Positive: Results (simvastatin alone) [4] | Results (simvastatin alone) [5] | Results (simvastatin alone) [6] | Results (simvastatin alone) [7] | Results (simvastatin alone) [8] | Results (simvastatin alone) [9] | Results (simvastatin alone) [10] | Results (simvastatin alone) [12] | Results (simvastatin alone) [13] | Results (simvastatin alone) ([15]; 5.0 mg/kg/day, i.v., ref Supplement [23]) | Results (simvastatin alone) ([15]; 5.0 mg/kg/day, route unknown, ref Supplement [21]) | Results (simvastatin alone) ([15]; 10.0 mg/kg/day, oral, ref Supplement [20]) | Results (simvastatin alone) ([15]; 200.0 mg/kg/day, oral, ref Supplement [22]) | Results (simvastatin alone) [16]
5.01: pIC50 [2]
Negative: Results (simvastatin alone) [11] | Results (simvastatin alone) [14]
~10%: inhibition at 1.5 µM ([1]; N2a cells, 1.5 μM simvastatin, read-out: inhibition rate)

From paper PMC8141582, “Synergistic Effect of Statins and Abiraterone Acetate on the Growth Inhibition of Neuroblastoma via Targeting Androgen Receptor” (Frontiers in Oncology, 2021)
